In US20240207409A1, “ORAL DELIVERY OF OLIGONUCLEOTIDES” (CiVi Biopharma, Inc., priority 2021, published 2024):
Like-named read-outs stand apart in the source and are kept apart here. {GalNAc3NHC6} = trivalent GalNAc moiety with NHC6 linker, (GalNAc3)(NHC6); l = locked nucleic acid (LNA); d = 2'-deoxy (DNA)

How the values were obtained:
[1] = system: plasma LDL-cholesterol; experiment: Plasma LDL-cholesterol after daily oral CIVI 008/SNAC capsules for 42 days and recovery (Example 1); format: in vivo, Cynomolgus monkey; settings: for LDL-c in control animals: control capsules, throughout the study
Description: (§1) Toxicity results: The study was conducted to GLP standards and monitored the following toxicity parameters throughout the study (pre-dose, day 14, 29, 42, and end of recovery): • Hematology: red blood cell (erythrocyte) count, hemoglobin, hematocrit, mean corpuscular volume, mean corpuscular hemoglobin, mean corpuscular hemoglobin, concentration, red cell distribution width, absolute reticulocyte count, platelet count, white blood cell (leukocyte) count, absolute neutrophil count, absolute lymphocyte count, absolute monocyte count, absolute eosinophil count, absolute basophil count, absolute large unstained cell count, blood smear. • Clinical chemistry, PCSK9 and lipids: urea nitrogen, creatinine, total protein, albumin, globulin, albumin:globulin ratio, total bilirubin, aspartate aminotransferase, alanine aminotransferase, alkaline phosphatase, gamma glutamyltransferase, creatine kinase, calcium, inorganic phosphorus, sodium, potassium, chloride, high density lipoproteins, low density lipoprotein, very low density lipoprotein, total cholesterol, triglycerides.

[2] = cynomolgus monkey, in vivo, po
Description: The objectives of this study were to evaluate the toxicity and reversibility of CIVI 008 and to determine the pharmacology, plasma exposure and target organ accumulation of CIVI 008 when administered daily by oral capsule to the Cynomolgus monkey of Mauritian origin for 42 days compared to administration by the subcutaneous route administered once every two weeks (investigated previously).
Oral Capsule: Capsules containing CIVI 008 (10 mg)/SNAC (100 mg) were manufactured as uniform dry blend formulations, that were filled into Size 4 hard shell gelatin capsules that were enterically coated post fill.

[3] = Liver and intestinal tissue concentrations of CIVI 008 (Example 1); format: in vivo, Cynomolgus monkey
Description: The purpose of this study was to provide information on the capsule dosing of CIVI 008 for further clinical trials in humans.

[4] = Repeat-dose toxicity study to GLP standards, oral capsule (Example 1); settings: cynomolgus monkey, in vivo
Description: as §1

[5] = Oral capsule toxicokinetic study of CIVI 008 using 5-CNAC as carrier (Example 3); format: in vivo, Cynomolgus monkey; settings: for increase of AUC with dose of CIVI 008 / increase of Cmax with dose of CIVI 008: constant dose of 5-CNAC
Excerpt: The objectives of this study were to determine the ability of 5-CNAC [Disodium N-(5-Chorosalicyloyl)-8-aminocaprylate] to facilitate oral uptake of CIVI 008 and to determine the manufacture method and dosing paradigm of CIVI 008/5-CNAC capsules that provide the most efficient oral uptake of CIVI 008 when administered to Cynomolgus monkeys of Mauritian origin.
Study outline: A total of 10 Cynomolgus monkeys (5 males and 5 females) were each dosed with 2 group A capsules on Monday and Wednesday in week 1, followed by 4 days of dosing holiday. This Monday and Wednesday dosing scheme was continued in weeks 2, 3, 5, 6, 7, 8, 13, 14, 15 and 17 using 2 group B-capsules per dose occasion in week 2, and 1 capsule of groups C to K per dose occasion in their respective weeks. During the dosing period, blood samples for PK analysis were drawn pre-dose and 0.5, 1.5, 3 and 5 hours post-dosing on Mondays and Wednesdays. Samples for clinical chemistry and hematology (see example 1) were taken pre-study and end of study.

[6] = system: PCSK9; experiment: PCSK9 reduction after daily oral CIVI 008/SNAC capsules for 42 days (Example 1); format: in vivo, Cynomolgus monkey; settings: daily oral for 42 days
Description: as §1

[7] = Half-life and accumulation of CIVI 008 in the liver; format: in vivo, non-human primates; settings: expected after 7-weeks of once daily dosing
[8] = Oral capsule PK study of CIVI 008 without GalNAc using 5-CNAC as carrier (Example 5); format: in vivo, Cynomolgus monkey; settings: single oral capsule, 20 mg/200 mg 5-CNAC; larger
Excerpt: As shown in previous Examples 1 and 3, orally dosed CIVI 008 with GalNAc is rapidly internalized in the liver by the GalNAc receptor, with very little CIVI 008 escaping into general circulation at doses below that required for saturation of the GalNAc receptor. In many instances the objective is to target genes that are expressed in organs other than the liver. […] The objective of this study was to determine the systemic exposure of orally administered CIVI 008 without the GalNAc conjugate, and to compare the exposure to that of a similar oral dose of CIVI 008 with GalNAc.
(§2) Study outline: Dry blended capsules (20 mg CIVI 008 without GalNAc/200 mg 5-CNAC) were manufactured from uniform dry blended formulations, that were filled into enterically coated Size 0, hard shell gelatin capsules. A total of 10 Cynomolgus monkeys (5 males and 5 females) were each administered a single capsule by oral gavage, and blood samples for PK analysis were drawn pre-dose and 0.5, 1.5, 3 and 5 hours post-dosing.

[9] = Oral capsule PK study of an oligo against Factor VII, with or without GalNAc, using 5-CNAC as carrier (Example 6); format: in vivo, Cynomolgus monkey; settings: for PK parameters compared to the corresponding CIVI 008 oligos: with and without GalNac
Description: as §2, with “(20 mg Factor FVII with or without GalNac/200” for “(20 mg CIVI 008 without GalNAc/200”, “or without GalNac/200 mg 5-CNAC)” for “008 without GalNAc/200 mg 5-CNAC)”, “single capsule of either oligo by oral” for “single capsule by oral”

[10] = dose increased further than 25 mg
[11] = oral, two group A capsules (each 10 mg CIVI 008/100 mg 5-CNAC, size 4)
[12] = size 4 (group A) to size 0 (group B) capsules
[13] = single oral capsule, 20 mg/200 mg 5-CNAC
[14] = single oral capsule, 20 mg/200 mg 5-CNAC, higher

## CIVI 008: GalNac conjugated LNA-gapmer antisense oligonucleotide targeting PCSK9 (SEQ ID NO: 134), cepadacursen formulated for oral administration (AATGCTACAAAACCCA; LNA gapmer with GalNAc conjugate, pattern not given here)
[1]
  LDL-c in control animals: fluctuated around baseline values
[1]; end of recovery
  return of LDL to baseline: had yet to fully return to baseline
[1]; recovery period after 42 days of dosing
  LDL levels after the end of dosing: maintained for two weeks post-dosing
[2]
  form of CIVI 008 detected in plasma (HPLC peak): mixture of parent compound and metabolites
  form of CIVI 008 detected in plasma (HPLC retention time): absorbed intact
  mean Tmax: ≤ 30 min
[3]; all segments, after QD oral dosing for 42 days
  concentrations of CIVI 008 in intestinal segments: measurable concentrations
[3]; declined during recovery, 3-week timepoint
  concentration of CIVI 008 in the liver during the recovery period: still present in measurable quantities
[3]; measured at the end of the dosing period
  difference in liver concentrations between the SQ and PO arms: approximately one
[4]
  macroscopic or microscopic findings (local or systemic effects): no macroscopic or microscopic findings
[4]; po
  local histopathological changes in the intestinal tract (duodenum, jejunum, ileum and colon): no local histopathological changes
[5]; [10]
  increase of AUC with dose of CIVI 008: more than dose proportional
  increase of Cmax with dose of CIVI 008: more than dose proportional
[5]; up to 25 mg CIVI 008
  increase of AUC with dose of CIVI 008: dose proportionally
  increase of Cmax with dose of CIVI 008: dose proportionally
[5]; dose range 5 mg to 30 mg
  AUC profiles, dry blended vs freeze-dried capsules: very similar
  Cmax profiles, dry blended vs freeze-dried capsules: very similar
[5]; dry blending vs co-dissolution followed by freeze-drying
  effect of manufacture method on intestinal absorption: did not appear to affect
[5]; oral capsules, vs Example 1
  AUC0-5 with 5-CNAC carrier compared to a similar dose using SNAC as carrier: increase
  Cmax with 5-CNAC carrier compared to a similar dose using SNAC as carrier: increase
[5]; [11]
  concentrations of CIVI 008 in the plasma: measurable concentrations
  mean Tmax: ≤ 30 min
[5]; [12]
  mean Tmax on increasing capsule size: didn't change
  mean plasma PK profile on increasing capsule size: didn't change
[6]
  mean PCSK9 reductions in control animals: comparatively small
[7]
  liver concentration relative to its steady state level: > 80%

## CIVI 008 without GalNAc: 16 nt LNA gapmer AbsAbsTbsdGsdCsdTsdAsdCsdAsdAsdAsdAsdCsCbsCbsAb, SEQ ID NO 134, no GalNAc moiety (AATGCTACAAAACCCA; sugars from the 5' end l3 d10 l3, all phosphorothioate, methylation of C not given here)
[8]
  AUC relative to a similar dose of CIVI 008 with GalNac: ~8 fold
  Cmax relative to a similar dose of CIVI 008 with GalNac: ~8 fold

## GalNac conjugated Factor FVII oligo: 13 nt ASO against Factor VII, SEQ ID NO 158, with (GalNAc3)(NHC6) moiety (antisense GCACCACGGTCCA; sugars from the 5' end l2 d8 l3, all phosphorothioate, 5' {GalNAc3NHC6}*, methylation of C not given here)
[9]; [13]
  concentrations in the plasma: measurable concentrations
[9]
  PK parameters compared to the corresponding CIVI 008 oligos: quite similar

## O=C([O-])CCCCCCCNC(=O)c1ccccc1O.[Na+] [SNAC, sodium 8-(2-hydroxybenzamido)octanoate, reference compound]
[1]
  LDL-c in control animals: fluctuated around baseline values
[6]
  mean PCSK9 reductions in control animals: comparatively small

## unconjugated Factor FVII oligo: 13 nt ASO against Factor VII, SEQ ID NO 158, GbsCbsdAsdCsdCsdAsdCsdGsdGsdTsCbsCbsAb (antisense GCACCACGGTCCA; sugars from the 5' end l2 d8 l3, all phosphorothioate, methylation of C not given here)
[9]; [13]
  concentrations in the plasma: measurable concentrations
[9]; [14]
  AUC relative to the GalNac conjugated Factor FVII oligo: ~3.5 fold
  Cmax relative to the GalNac conjugated Factor FVII oligo: ~3.5 fold
[9]
  PK parameters compared to the corresponding CIVI 008 oligos: quite similar
